{"source": "patent US11530244B2", "about": "“Cyclic polypeptides for PCSK9 inhibition” (priority 2018, dated 2022)", "assay_type_in_all_cases": "binding", "key": {"[1]": {"target": "human PCSK9 / human LDLR EGFa domain interaction (Homo sapiens (Human), UniProt Q8NBP7)", "sequence (Q8NBP7 153-692)": "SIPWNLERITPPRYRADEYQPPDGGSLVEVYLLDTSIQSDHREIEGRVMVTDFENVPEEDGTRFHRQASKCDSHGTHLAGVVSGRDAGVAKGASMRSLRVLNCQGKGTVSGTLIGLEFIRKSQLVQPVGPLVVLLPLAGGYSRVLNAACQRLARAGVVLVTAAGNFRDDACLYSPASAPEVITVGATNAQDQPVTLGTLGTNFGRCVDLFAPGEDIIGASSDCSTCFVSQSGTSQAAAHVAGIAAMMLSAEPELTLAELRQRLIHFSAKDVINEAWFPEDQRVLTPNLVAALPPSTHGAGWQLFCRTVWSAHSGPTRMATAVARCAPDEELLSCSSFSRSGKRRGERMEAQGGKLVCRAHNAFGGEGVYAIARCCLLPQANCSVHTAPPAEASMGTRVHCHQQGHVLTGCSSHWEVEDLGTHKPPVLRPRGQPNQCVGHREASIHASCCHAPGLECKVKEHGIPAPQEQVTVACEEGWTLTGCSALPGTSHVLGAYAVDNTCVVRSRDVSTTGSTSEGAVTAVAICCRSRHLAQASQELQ", "sequence (Q8NBP7 31-152 partner)": "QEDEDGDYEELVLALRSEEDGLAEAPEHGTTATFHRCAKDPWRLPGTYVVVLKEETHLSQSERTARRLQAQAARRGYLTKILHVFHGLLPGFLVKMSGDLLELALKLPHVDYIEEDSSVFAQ", "experiment": "TR-FRET assay of inhibition of the PCSK9-LDLR protein-protein interaction", "details": "TR-FRET, 20 nM human PCSK9, 20 nM human LDLR EGFa domain, 2 hours room temperature; read-out: IC50", "outline": "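Biotinylated PCSK9 (20 nM) and His-tagged LDLR EGFa domain (20 nM) were incubated 2 h at room temperature with 5 nM Ulight-streptavidin and 5 nM Eu-anti-His in HEPES/NaCl/CaCl2 buffer with 0.01% BSA and 0.01% P20. TR-FRET was read; half-maximal inhibitory concentrations came from 4-parameter dose-response fits.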"}, "PCSK9 [2]": {"target": "T1, PCSK9 (Homo sapiens (Human), UniProt Q8NBP7)", "T1 sequence (Q8NBP7 153-692)": "as the sequence (Q8NBP7 153-692) above", "experiment": "PCSK9 Alexa FRET Standard assay (displacement of AlexaFluor647 tagged cyclic peptide Reagent A)", "details": "PCSK9 Alexa FRET Standard assay, 0.5 nM PCSK9, 20 nM AF cyclic peptide Reagent A; read-out: IC50", "outline": "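TR-FRET displacement: 0.5 nM biotinylated PCSK9 with 1.25 nM Strep-Eu and 20 nM AlexaFluor-tagged cyclic peptide (final) in 50 mM HEPES pH 7.4, 0.15 M NaCl, 5 mM CaCl2, 0.01% BSA, 0.01% P20, ≥2 h at room temperature. IC50 from sigmoidal fit, converted to Ki via peptide KD; falling Eu counts flagged false positives.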"}, "PCSK9 [3]": {"target": "T1, PCSK9", "experiment": "PCSK9 Alexa FRET Plus assay (displacement of AlexaFluor647 tagged cyclic peptide Reagent B)", "details": "0.5 nM PCSK9, 960 nM AF cyclic peptide Reagent B", "outline": "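TR-FRET displacement with final 0.5 nM biotinylated PCSK9, 1.25 nM Strep-Eu and 960 nM AlexaFluor-tagged cyclic peptide in HEPES pH 7.4, NaCl, CaCl2, BSA, P20; ≥2 h at room temperature. IC50 from sigmoidal fit, converted to Ki using peptide KD. Falling europium counts flagged false positives.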"}, "[4]": {"details": "Alexa FRET Plus, read-out: IC50"}}, "note": "pIC50: −log10 of the molar value. Starred links: 1 amine or outer side, 2 acyl side, 3 side chain; linkers in the order of their positions; H or OH if unused. Positions of bridges follow the written chain, without caps; N, C: chain ends. Non-standard residues stand in square brackets, D forms with d. Residues, ends and D or L forms follow the SMILES beside them. ξ: configuration not given here. NHCH2(1,3-C6H4)CH2CO = O=C(Cc1cccc(CN[*:1])c1)[*:2]; Trp(5-OH) = N[C@@H](Cc1c[nH]c2ccc(O)cc12)C(=O)O; Trp(5-F) = N[C@@H](Cc1c[nH]c2ccc(F)cc12)C(=O)O; mXylylene = c1cc(C[*:1])cc(C[*:2])c1; Cha = N[C@@H](CC1CCCCC1)C(=O)O; aThr = C[C@H](O)[C@H](N)C(=O)O; NMeL = CN[C@@H](CC(C)C)C(=O)O; αMeP = C[C@@]1(C(=O)O)CCCN1; ξD = NC(CC(=O)O)C(=O)O; Mpa = O=C(O)CCS"}
{"compound": "NCCCC[C@@H]1NC(=O)CCSCc2cccc(c2)CSC[C@@H](C(N)=O)NC(=O)[C@@H]2CCCN2C(=O)[C@H](Cc2ccc(O)cc2)NC(=O)[C@H](Cc2c[nH]cn2)NC(=O)[C@H](CC(=O)O)NC(=O)[C@H](Cc2c[nH]c3ccc(F)cc23)NC(=O)[C@H](CC2CCCCC2)NC(=O)CNC1=O", "note": "[Compound 223] ([Mpa]KG[Cha][Trp(5-F)]DHYPC-NH2; linker 1-10 via mXylylene)", "values": [{"measurement": "pIC50", "setting": "[1]", "value": "7.00 to 10.00"}, {"measurement": "pIC50", "setting": "PCSK9 [2]", "value": "7.00 to 9.96"}, {"measurement": "pIC50", "setting": "PCSK9 [3]; [4]", "value": "6.30 to 7.00"}]}
{"compound": "CO[C@@H](C)[C@@H]1NC(=O)CCSCc2cccc(c2)CSC[C@@H](C(N)=O)NC(=O)[C@]2(C)CCCN2C(=O)[C@H](Cc2ccc(O)cc2)NC(=O)[C@H](Cc2cnc[nH]2)NC(=O)[C@H](CC(=O)O)NC(=O)[C@H](Cc2c[nH]c3ccc(F)cc23)NC(=O)[C@H](Cc2c[nH]c3ccc(F)cc23)NC(=O)CNC1=O", "note": "[Compound 377] ([Mpa][aThr](Me)G[Trp(5-F)][Trp(5-F)]DHY[αMeP]C-NH2; linker 1-10 via mXylylene)", "values": [{"measurement": "pIC50", "setting": "[1]", "value": "7.00 to 10.00"}, {"measurement": "pIC50", "setting": "PCSK9 [2]", "value": "7.00 to 9.96"}, {"measurement": "pIC50", "setting": "PCSK9 [3]; [4]", "value": "6.30 to 7.00"}]}
{"compound": "CC[C@H](C)[C@@H]1NC(=O)[C@@H]2CCCN2C(=O)[C@H](Cc2c[nH]c3ccc(F)cc23)NC(=O)[C@H](Cc2c[nH]c3ccc(F)cc23)NC(=O)[C@@H](C)NC(=O)[C@H](CCCCN)NC(=O)CCSCc2cccc(c2)CSC[C@@H](C(N)=O)NC(=O)[C@]2(C)CCCN2C(=O)[C@H](Cc2ccc(OC)cc2)NC1=O", "note": "[Compound 007] ([Mpa]K[dA][Trp(5-F)][Trp(5-F)]PIY(Me)[αMeP]C-NH2; linker 1-10 via mXylylene)", "values": [{"measurement": "pIC50", "setting": "[1]", "value": "7.00 to 10.00"}, {"measurement": "pIC50", "setting": "PCSK9 [2]", "value": "6.00 to 7.00"}, {"measurement": "pIC50", "setting": "PCSK9 [3]; [4]", "value": "5.30 to 6.30"}]}
{"compound": "COc1ccc(C[C@@H]2NC(=O)[C@@H](CC(C)C)NC(=O)[C@H]([C@@H](C)OC)NC(=O)CCSCc3cccc(c3)CSC[C@@H](C(N)=O)NC(=O)[C@]3(C)CCCN3C(=O)[C@H](Cc3ccc(OC)cc3)NC(=O)[C@H]([C@@H](C)OC)NC(=O)[C@H](CC(C)C)N(C)C(=O)[C@H](Cc3ccc(OC)cc3)NC2=O)cc1", "note": "[Compound 035] ([Mpa]T(Me)[dL]Y(Me)Y(Me)[NMeL]T(Me)Y(Me)[αMeP]C-NH2; linker 1-10 via mXylylene)", "values": [{"measurement": "pIC50", "setting": "[1]", "value": "7.00 to 10.00"}, {"measurement": "pIC50", "setting": "PCSK9 [2]", "value": "7.00 to 9.96"}, {"measurement": "pIC50", "setting": "PCSK9 [3]; [4]", "value": "7.00 to 10.00"}]}
{"compound": "C[C@@]12CCCN1C(=O)[C@H](Cc1ccc(O)cc1)NC(=O)[C@H](Cc1cnc[nH]1)NC(=O)[C@H](CC(=O)O)NC(=O)[C@H](Cc1c[nH]c3ccc(O)cc13)NC(=O)[C@H](Cc1c[nH]c3ccc(F)cc13)NC(=O)CNC(=O)[C@H](CCCCN)NC(=O)CCSCc1cccc(c1)CSC[C@@H](C(N)=O)NC2=O", "note": "[Compound 399] ([Mpa]KG[Trp(5-F)][Trp(5-OH)]DHY[αMeP]C-NH2; linker 1-10 via mXylylene)", "values": [{"measurement": "pIC50", "setting": "[1]", "value": "7.00 to 10.00"}, {"measurement": "pIC50", "setting": "PCSK9 [2]", "value": "7.00 to 9.96"}, {"measurement": "pIC50", "setting": "PCSK9 [3]; [4]", "value": "6.30 to 7.00"}]}
{"compound": "COc1ccc(C[C@@H]2NC(=O)[C@H]([C@@H](C)O)NC(=O)[C@@H]3C[C@H](F)CN3C(=O)[C@H](Cc3c[nH]c4ccc(F)cc34)NC(=O)[C@H](Cc3c[nH]c4ccc(F)cc34)NC(=O)[C@@H](C)NC(=O)CNC(=O)CCCCNCc3ccc(cc3)C[C@@H](C(N)=O)NC(=O)[C@]3(C)CCCN3C2=O)cc1", "note": "[Compound 130]", "values": [{"measurement": "pIC50", "setting": "[1]", "value": "7.00 to 10.00"}, {"measurement": "pIC50", "setting": "PCSK9 [2]", "value": "7.00 to 9.96"}, {"measurement": "pIC50", "setting": "PCSK9 [3]; IC50, Alexa FRET Plus", "value": "6.30 to 7.00"}]}
{"compound": "NCCCC[C@@H]1NC(=O)CCCn2cc(nn2)C[C@@H](C(N)=O)NC(=O)[C@@H]2CCCN2C(=O)[C@H](Cc2ccc(O)cc2)NC(=O)[C@H](Cc2c[nH]cn2)NC(=O)[C@H](CC(=O)O)NC(=O)[C@H](Cc2c[nH]c3ccc(F)cc23)NC(=O)[C@H](Cc2c[nH]c3ccc(F)cc23)NC(=O)CNC1=O", "note": "[Compound 184]", "values": [{"measurement": "pIC50", "setting": "[1]", "value": "7.00 to 10.00"}, {"measurement": "pIC50", "setting": "PCSK9 [2]", "value": "7.00 to 9.96"}, {"measurement": "pIC50", "setting": "PCSK9 [3]; [4]", "value": "7.00 to 10.00"}]}
{"compound": "COc1ccc(C[C@@H]2NC(=O)[C@H](Cc3cnc[nH]3)NC(=O)[C@H](CC(=O)O)NC(=O)[C@H](Cc3c[nH]c4ccc(F)cc34)NC(=O)[C@H](Cc3c[nH]c4ccc(F)cc34)NC(=O)[C@@H](C)NC(=O)Cc3cccc(c3)CNC(=O)CC(C(=O)O)NC(=O)[C@]3(C)CCCN3C2=O)cc1", "note": "(stereo partly drawn) [Compound 401] ([NHCH2(1,3-C6H4)CH2CO][dA][Trp(5-F)][Trp(5-F)]DHY(Me)[αMeP][ξD]-OH; lactam N-9)", "values": [{"measurement": "pIC50", "setting": "[1]", "value": "7.00 to 10.00"}, {"measurement": "pIC50", "setting": "PCSK9 [2]", "value": "7.00 to 9.96"}, {"measurement": "pIC50", "setting": "PCSK9 [3]; [4]", "value": "7.00 to 10.00"}]}
